In the NIST ThermoML archive (doi:10.1016/j.jct.2016.03.026):

Assay: xn = mol fraction of the nth substance listed
Details: 304.21 K, Fluid (supercritical or subcritical phases), Vibrating tube method, x1 = 0.97

O=C=O [carbon dioxide] + CO
Details | mass density [kg/m3]
10625 kPa | 791.47
10650 kPa | 791.91
10675 kPa | 792.32
10700 kPa | 792.79
10725 kPa | 793.26
10750 kPa | 793.67
10775 kPa | 794.08
10800 kPa | 794.49
10825 kPa | 794.91
10850 kPa | 795.38
10875 kPa | 795.84
10900 kPa | 796.21
10925 kPa | 796.66
10950 kPa | 797.06
10975 kPa | 797.53
11000 kPa | 797.93
11025 kPa | 798.32
11050 kPa | 798.73
11075 kPa | 799.17
11100 kPa | 799.63
11125 kPa | 799.99
11150 kPa | 800.45
11175 kPa | 800.8
11200 kPa | 801.23
11225 kPa | 801.64
11250 kPa | 802.05
11275 kPa | 802.5
11300 kPa | 802.86
11325 kPa | 803.31
11350 kPa | 803.73
11375 kPa | 804.09
11400 kPa | 804.56
11425 kPa | 804.93
11450 kPa | 805.27
11475 kPa | 805.69
11500 kPa | 806.12
11525 kPa | 806.52
11550 kPa | 806.91
11575 kPa | 807.3
11600 kPa | 807.66
11625 kPa | 808.01
11650 kPa | 808.41
11675 kPa | 808.81
11700 kPa | 809.25
11725 kPa | 809.62
11750 kPa | 810
11775 kPa | 810.37
11800 kPa | 810.74
11825 kPa | 811.11
11850 kPa | 811.47
11875 kPa | 811.83
11900 kPa | 812.25
11925 kPa | 812.53
11950 kPa | 812.98
11975 kPa | 813.33
12000 kPa | 813.7
12025 kPa | 814.08
12050 kPa | 814.43
12075 kPa | 814.76
12100 kPa | 815.17
12125 kPa | 815.5
12150 kPa | 815.82
12175 kPa | 816.22
12200 kPa | 816.54
12225 kPa | 816.89
12250 kPa | 817.23
12275 kPa | 817.54
12300 kPa | 817.94
12325 kPa | 818.27
12350 kPa | 818.61
12375 kPa | 818.95
12400 kPa | 819.29
12425 kPa | 819.62
12450 kPa | 819.95
12475 kPa | 820.29
12500 kPa | 820.61
12525 kPa | 820.93
12550 kPa | 821.24
12575 kPa | 821.61
12600 kPa | 821.94
12625 kPa | 822.23
12650 kPa | 822.53
12675 kPa | 822.85
12700 kPa | 823.18
12725 kPa | 823.45
12750 kPa | 823.79
12775 kPa | 824.13
12800 kPa | 824.43
12825 kPa | 824.72
12850 kPa | 825.02
12875 kPa | 825.36
12900 kPa | 825.66
12925 kPa | 825.97
12950 kPa | 826.28
12975 kPa | 826.52
13000 kPa | 826.85
13025 kPa | 827.19
13050 kPa | 827.45
13075 kPa | 827.74
13100 kPa | 828.02
13125 kPa | 828.34
13150 kPa | 828.59
13175 kPa | 828.91
13200 kPa | 829.21
13225 kPa | 829.5
13250 kPa | 829.81
13275 kPa | 830.06
13300 kPa | 830.33
13325 kPa | 830.63
13350 kPa | 830.91
13375 kPa | 831.19
13400 kPa | 831.47
13425 kPa | 831.75
13450 kPa | 832.03
13475 kPa | 832.3
13500 kPa | 832.56
13525 kPa | 832.83
13550 kPa | 833.09
13575 kPa | 833.35
13600 kPa | 833.6
13625 kPa | 833.85
13650 kPa | 834.12
13675 kPa | 834.42
13700 kPa | 834.66
13725 kPa | 834.9
13750 kPa | 835.2
13775 kPa | 835.42
13800 kPa | 835.64
13825 kPa | 835.86
13850 kPa | 836.06
13875 kPa | 836.22
13900 kPa | 836.51
13925 kPa | 836.81
13950 kPa | 837.08
13975 kPa | 837.35
14000 kPa | 837.64
14025 kPa | 837.92
14050 kPa | 838.19
14075 kPa | 838.5
14100 kPa | 838.78
14125 kPa | 839.03
14150 kPa | 839.31
14175 kPa | 839.62
14200 kPa | 839.87
14225 kPa | 840.12
14250 kPa | 840.43
14275 kPa | 840.68
14300 kPa | 840.92
14325 kPa | 841.24
14350 kPa | 841.49
14375 kPa | 841.72
14400 kPa | 842.04
14425 kPa | 842.27
14450 kPa | 842.52
14475 kPa | 842.78
14500 kPa | 843.08
14525 kPa | 843.34
14550 kPa | 843.58
14575 kPa | 843.9
14600 kPa | 844.14
14625 kPa | 844.38
14650 kPa | 844.61
14675 kPa | 844.86
14700 kPa | 845.17
14725 kPa | 845.44
14750 kPa | 845.72
14775 kPa | 845.96
14800 kPa | 846.19
14825 kPa | 846.5
14850 kPa | 846.73
14875 kPa | 846.98
14900 kPa | 847.24
14925 kPa | 847.52
14950 kPa | 847.71
14975 kPa | 848
15000 kPa | 848.29
15025 kPa | 848.51
15050 kPa | 848.76
15075 kPa | 849.02
15100 kPa | 849.3
15125 kPa | 849.56
15150 kPa | 849.76
15175 kPa | 850.04
15200 kPa | 850.3
15225 kPa | 850.56
15250 kPa | 850.76
15275 kPa | 851.04
15300 kPa | 851.23
15325 kPa | 851.51
15350 kPa | 851.79
15375 kPa | 851.98
15400 kPa | 852.22
15425 kPa | 852.43
15450 kPa | 852.7
15475 kPa | 852.92
15500 kPa | 853.2
15525 kPa | 853.4
15550 kPa | 853.64
15575 kPa | 853.89
15600 kPa | 854.15
15625 kPa | 854.39
15650 kPa | 854.57
15675 kPa | 854.81
15700 kPa | 855.06
15725 kPa | 855.3
15750 kPa | 855.49
15775 kPa | 855.71
15800 kPa | 855.96
15825 kPa | 856.2
15850 kPa | 856.41
15875 kPa | 856.68
15900 kPa | 856.93
15925 kPa | 857.08
15950 kPa | 857.32
15975 kPa | 857.56
16000 kPa | 857.77
16025 kPa | 857.95
16050 kPa | 858.19
16075 kPa | 858.44
16100 kPa | 858.66
16125 kPa | 858.84
16150 kPa | 859.07
16175 kPa | 859.32
16200 kPa | 859.52
16225 kPa | 859.74
16250 kPa | 859.97
16275 kPa | 860.2
16300 kPa | 860.35
16325 kPa | 860.63
16350 kPa | 860.83
16375 kPa | 861.01
16400 kPa | 861.22
16425 kPa | 861.43
16450 kPa | 861.65
16475 kPa | 861.85
16500 kPa | 862.01
16525 kPa | 862.21
16550 kPa | 862.42
16575 kPa | 862.62
16600 kPa | 862.9
16625 kPa | 863.08
16650 kPa | 863.26
16675 kPa | 863.56
